Laboratory results from paper PMC8350397, “GSK137, a potent small-molecule BCL6 inhibitor with in vivo activity, suppresses antibody responses in mice” (The Journal of Biological Chemistry, 2021).
In brackets after ≈: the same amount, converted by molar mass.

Tests used:
[1] = GSK in-house kinetic solubility assay (CAD); format: physicochemical; details: kinetic from dmso stock, charged aerosol detector
[2] = tested on: splenic GC B cells and Tfh cells; test: TNP-KLH immunization model, flow cytometry of spleen cells; format: in vivo, mouse; details: for reduction of mean absolute number of Tfh cells per spleen vs vehicle: day 12, not statistically significant
Method: (§1) Male CD1 mice (30–40 g, 8–9 weeks of age) were randomized into study treatment groups, housed individually and allowed to acclimatize under standard laboratory conditions for a minimum of 5 days prior to commencement of the study. Mice received food and water ad libitum. The experiment was performed in a certified dedicated in vivo experimental laboratory at the GlaxoSmithKline Medicines Research Centre, Stevenage, United Kingdom. The four treatment groups were (1) unimmunized and untreated (naive group) (n = 4); (2) intraperitoneal vehicle (n = 13), (3) GSK137 15 mg/kg (n = 14), and (4) GSK137 30 mg/kg (n = 14). Groups (2) to (4) were given intraperitoneal immunization with TNP–KLH (100 μg) on day 0, vehicle was 1% methylcellulose in water + 0.1% sodium lauryl sulphate, and compound or vehicle was given to groups (2) to (4) by oral gavage three times per day from day −1 to day +12. Blood samples were collected by tail vein for measurement of compound, IgM and IgG levels on days 0, 5, 8, and 12 ahead of immunization/first daily dose. On day 8, blood samples were also taken (n = 7) at 0.5, 1.5, 3, 5, or 7 h after first daily dose. On day 12, spleens were collected, weighed, and placed into Dulbecco's modified Eagle's medium on wet ice for analysis by flow cytometry.
For cell measurements, spleens were passed through a […] cell strainer, red blood cells were lysed, and cells were resuspended in medium, counted, and 1 × 10^6 cells plated for staining. Cells were washed in PBS and resuspended in 100 μl viability dye (diluted 1:1000 in PBS) for 15 min at room temperature. About 100 μl cell-staining buffer (CSB; BioLegend; catalog no. 420201) was added to each well before centrifugation and removal of supernatants, and cell pellets were resuspended in 100 μl relevant cocktail of antibodies (Table S2) for surface staining and incubated for 30 min at 4 °C. Cells were then washed in CSB and resuspended in 200 μl of FoxP3 fixation and permeabilization buffer for 30 min for staining of intracellular markers for 30 min. Cells were washed in PermWash buffer and resuspended in CSB (250 μl) before acquisition of a Cytek Aurora spectral cytometer (Cytek). Gating was carried out as shown (Figs. S1 and S2), and data were analyzed on FlowJo 10 (Becton Dickinson). Cell frequency was used to calculate an absolute cell number per tissue from the total live cell counts from whole homogenized spleen. Data were normalized against background GC and Tfh quantified in naive mice prior to performing percent inhibition calculations.
Single cell suspensions were generated by passing spleens through a 40 µM cell strainer into medium (RPMI 1640 supplemented with 2% fetal calf serum, 1% penicillin / streptomycin, 1% L-glutamine). Following centrifugation (400 g, 5 minutes, 4 °C) and removal of supernatants, red blood cells were lysed by incubation in 1 mL lysis buffer for 1 minute at room temperature. Cells were resuspended in medium, counted on a Nucleocounter NC3000 (Chemometec, Lillerød, Denmark) and 1x10^6 cells plated into 96-well polypropylene plates for staining. Cells were washed in 200 µL PBS and resuspended in 100 µL viability dye (diluted 1:1000 in PBS) for 15 minutes at room temperature. 100 µL cell staining buffer (CSB) (BioLegend, San Diego, CA, USA, #420201) was added to each well before centrifugation and removal of supernatants. Cell pellets were resuspended in 100 µL relevant cocktail of antibodies (see Tables S2 and S3) for surface staining and incubated for 30 minutes at 4 °C. Cells were washed in CSB and resuspended in 200 uL of FoxP3 fixation and permeabilisation buffer for 30 minutes in the dark at room temperature, washed and stained for intracellular markers for 30 minutes at room temperature. Cells were washed in Permwash and resuspended in CSB (250 µL) before acquisition on a Cytek Aurora spectral cytometer (Cytek, Fremont, CA, USA). […]

[3] = Pharmacokinetics in blood during the immunization study; format: in vivo; details: male, CD1, mouse, whole blood, po; for AUC: daily steady state, from simulated profiles; for Tmax: day 8; for Cmax: day 8, blood
Method: as §1
Mouse blood/water (50/50) samples were analyzed for GSK137 using an analytical method based on protein precipitation, followed by HPLC/MS–MS analysis. The lower limit of quantification for GSK137 was 1.2 ng/ml with a higher limit of quantification of 3000 ng/ml. A two-compartment PK model was used to describe the measured composite mean steady-state oral concentration–time profiles. A three times per day dose simulation was performed using the two-compartment PK model parameters generated to simulate the repeat dose concentration–time profile. All modelings were conducted in Phoenix64 (WinNonLin) version 8.1 (Pharsight).

Cc1ncccc1[C@H]1C[C@@H](c2cccc3nc(N)ccc23)Nc2c(F)cnn21 [GSK137, 5-((5S,7R)-3-Fluoro-7-(2-methylpyridin-3-yl)-4,5,6,7-tetrahydropyrazolo[1,5-a]pyrimidin-5-yl)quinolin-2-amine]
solubility [1]: 128 µg/mL (≈ 342 µM) | plasmablasts and plasma cells as a percentage of total viable cells vs vehicle ([2]; 15 mg/kg or 30 mg/kg, Fig. S6B): no statistically significant reductions | reduction of mean number of GC B cells per spleen vs vehicle ([2]; 15 mg/kg, day 12): 53% | reduction of mean absolute number of Tfh cells per spleen vs vehicle ([2]; 15 mg/kg): 39% | reduction of frequency of GC B cells within total splenic B cells vs vehicle ([2]; 15 mg/kg, day 12, p = 0.0058): 61% | reduction of mean frequency of Tfh cells as fraction of splenic CD4+ T cells vs vehicle ([2]; 15 mg/kg, day 12, p = 0.014): 48% | reduction of mean absolute number of Tfh cells per spleen vs vehicle ([2]; 30 mg/kg): 34% | reduction of frequency of GC B cells within total splenic B cells vs vehicle ([2]; 30 mg/kg, day 12, p = 0.0031): 72% | reduction of mean frequency of Tfh cells as fraction of splenic CD4+ T cells vs vehicle ([2]; 30 mg/kg, day 12, p = 0.0041): 50% | reduction of mean number of GC B cells per spleen vs vehicle ([2]; 30 mg/kg, day 12, p = 0.04): 67% | number of plasmablasts and plasma cells (CD19+/intCD138+) in spleen vs vehicle ([2]; 15 and 30 mg/kg, after immunization): no statistically significant difference | macrophage, dendritic cell and natural killer cell markers (CD11c, CD11b, CD161) vs vehicle ([2]; data not shown): no difference | mean total CD4+ T-cell numbers per spleen ([2]; significant at 30 mg/kg (p = 0.032), not at 15 mg/kg): return mean CD4^+ T-cell numbers to levels observed in naive mice | AUC ([3]; 15 mg/kg orally TID): 3400 ng·h/mL | Tmax ([3]; 15 mg/kg orally TID): 30 min | Cmax ([3]; 15 mg/kg orally TID): 471 ± 226 ng/mL | AUC ([3]; 30 mg/kg orally TID): 6810 ng·h/mL | Tmax ([3]; 30 mg/kg orally TID): 30 min | Cmax ([3]; 30 mg/kg orally TID): 1340 ± 141 ng/mL
